Among the data in PubChem BioAssay (NCI) are GI50 and TGI values, retold here.

Values after ≈ are worked out from the molar mass of the structure shown. Values joined by “and” are separate entries in the source; they are usually repeats but may differ in a detail not shown here. Equal entries are not always repeated.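 Compound exposure: 48 hours, 5 concentrations, 96-well plates. At the GI50, growth is halved. TGI denotes the concentration required for complete inhibition of growth.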 Some results are limits rather than exact numbers.

Among the test systems are T-47D breast; MCF7 breast; MDA-N.
What all share (experiment): growth of human tumour cells (NCI), 48 h

As to `COC(=O)[C@]12CC[C@@H](C)[C@H](C)[C@@H]1C1=CC[C@@H]3[C@@]4(C)CC(=O)[C@H](O)[C@@]5(C)COC(=C45)C[C@@]3(C)[C@]1(C)CC2`, in the assay on T-47D breast, the GI50 was 18.4 µM and the TGI was 38.8 µM. Further, in the assay on MCF7 breast, the GI50 is 16.9 µM and the TGI was 35.6 µM.

Take `CC1(C)CC(=O)C2=C(C1)NC(SSC1=C(C#N)C(c3ccccc3)C3=C(CC(C)(C)CC3=O)N1)=C(C#N)C2c1ccccc1` (stereo unspecified): the GI50 with MDA-N is 21 mg/L (≈ 33.9 µM); in the assay with T-47D breast, 30.7 mg/L; with MCF7 breast, 35.6 mg/L. The TGI was determined as 40.4 mg/L with MDA-N, 62.4 mg/L in the assay with T-47D breast and 85.6 mg/L with MCF7 breast.

As for `O=C1C=C[C@]2(C[C@@H](c3cccc(C(F)(F)F)c3)O[C@@H](c3cccc(C(F)(F)F)c3)O2)O1`, in the assay on T-47D breast, the GI50 was 1.1 µM and the TGI was 3.96 µM. Moreover, in the assay with MCF7 breast, the GI50 was 0.389 µM and the TGI came to 3.68 µM.

With `C[C@@H](c1ccc2nccn2c1)n1nnc2ncc(-c3cnn(C)c3)nc21`, in the assay on T-47D breast, the GI50 was 53 µM and the TGI was > 100 µM. Besides, in the assay on MCF7 breast, the GI50 is > 100 µM and the TGI is > 100 µM.

With `CCOC(=O)c1cnc(SCc2ccc(Cl)c(Cl)c2)nc1N1CC1`, the GI50 was 3.15 µM in the assay on T-47D breast and 1.27 µM in the assay with MCF7 breast. Besides, the TGI in the assay on T-47D breast stood at 19.5 µM; in the assay on MCF7 breast it was 11.4 µM.

Regarding `COc1ccc(N(C)c2nc(C)nc3ccccc23)cc1`, in the assay with T-47D breast, the GI50 is 14.2 µM and the TGI is > 100 µM. Besides, in the assay on MCF7 breast, the GI50 is < 0.01 µM and the TGI was > 100 µM.

With `O=c1c(Cl)nnc2sc3ccccc3n12`, in the assay with MCF7 breast, the GI50 is 33.6 µM and the TGI is > 100 µM.

On to `C1=CN2C[n+]3cccc(OCc4ccccc4)c3N=C2C(OCc2ccccc2)=C1`, for which the TGI in the assay with T-47D breast and with MCF7 breast was > 100 µM in each case.

`COc1ccc(/C(=C/c2cc(OC)c(OC)c(OC)c2)[N+](=O)[O-])cc1`: in the assay with T-47D breast, the GI50 is 1.65 µM and the TGI amounted to 10.3 µM.

For the compound `O=C1C2CC(Cl)C(SSC3CC4C(=O)N(SC(Cl)(Cl)C(Cl)Cl)C(=O)C4CC3Cl)CC2C(=O)N1SC(Cl)(Cl)C(Cl)Cl` (stereo unspecified), the TGI in the assay with MDA-N is 6.71 µM; with T-47D breast, 7.18 µM; with MCF7 breast, 7.67 µM.

For `O=C(Nc1ccncc1)C(=O)c1cn(S(=O)(=O)c2ccc(Br)cc2)c2ccccc12`, in the assay on T-47D breast, the GI50 was 7.74 µM and the TGI is > 100 µM.

For the compound `O=C(Nc1n[nH]c2nc(-c3ccco3)c(Br)cc12)C1CC1`, in the assay with T-47D breast, the GI50 is > 25 µM and the TGI is > 25 µM. In addition, in the assay with MCF7 breast, the GI50 is > 7.12 µM and the TGI is > 25 µM.

On to `Nc1cccc2c1C(=O)N(C1CCC(=O)NC1=O)C2=O` (stereo unspecified), for which the GI50 in the assay on T-47D breast and with MCF7 breast was > 100 µM each time. The TGI with T-47D breast and in the assay on MCF7 breast was > 100 µM each time.

Turning to `O=S(=O)(c1ccc(NC(=S)N/N=C/c2ccccc2O)cc1)N1CCCCC1`, the TGI in the assay on T-47D breast is > 52.8 µM.

Consider `COc1cc(-c2cc(C(=O)N3CCN(C(=O)c4ccccc4NCc4ccco4)CC3)nc3cc(-c4ccccc4)nn23)cc(OC)c1OC`, for which the GI50 in the assay on T-47D breast is 2.94 µM; with MCF7 breast, 0.92 µM. Besides, the TGI in the assay with T-47D breast and in the assay with MCF7 breast was > 100 µM throughout.

On to `Cc1ccc2c(c1)NC(c1ccc(C(=O)O)cc1)c1cccn1-2` (stereo unspecified), for which the TGI was > 100 µM in the assay with MDA-N, 49.2 µM with T-47D breast and > 100 µM with MCF7 breast.

In the case of `COc1ccccc1C(=O)/C=C/c1cc2cccc(OC)c2[nH]c1=O`, in the assay with T-47D breast, the GI50 was 0.626 µM and the TGI is 12.8 µM. In the assay on MCF7 breast, the GI50 is 0.0358 µM and the TGI worked out at 4.12 µM.

As for `O=C1/C(=C\c2ccc(Cl)cc2)CN(C(=S)Nc2ccccc2)C/C1=C\c1ccc(Cl)cc1`, in the assay with T-47D breast, the GI50 was 1.1 µM and the TGI turned out to be 3.61 µM. In the assay on MCF7 breast, the GI50 is 0.292 µM and the TGI was found to be 1.15 µM.

Turning to `Nc1ccn(C=C=CCO)c(=O)n1`, the GI50 with T-47D breast and with MCF7 breast was > 1000 µM in each case. In addition, the TGI in the assay with T-47D breast and in the assay with MCF7 breast was > 1000 µM in each case.

`COc1cc2c3c(n(C)c(=O)c2cc1OC)-c1cc2c(cc1/C3=C\CCCCN)OCO2`: the results for the GI50 in the assay on T-47D breast and in the assay with MCF7 breast were 37.7 µM and 3.46 µM, respectively. The TGI with T-47D breast was > 100 µM; with MCF7 breast it was 12.7 µM.

On to `O=[N+]([O-])c1ccc(N/N=C\c2cc(Cl)ccc2O)nc1`, for which, in the assay on T-47D breast, the GI50 was 2.86 µM and the TGI is > 100 µM. Further, in the assay with MCF7 breast, the GI50 is 2.73 µM and the TGI was > 100 µM.

As for `C[C@H]1[C@H](OC(=O)CCC(=O)O)O[C@@H]2O[C@]3(C)CC[C@H]4[C@H](C)CC[C@@H]1[C@@]24OO3`, in the assay on T-47D breast, the GI50 is 0.4 µM and the TGI was 22.7 µM. Moreover, in the assay on MCF7 breast, the GI50 was 0.698 µM and the TGI stood at 20.8 µM.

On to `CC1(C)N=C(N)N=C(N)N1c1cccc(/C=C/C=C/c2cccc([N+](=O)[O-])c2)c1`, for which, in the assay with MCF7 breast, the GI50 was 5.57 µM and the TGI was 22.4 µM.

Regarding `O=C1CC(=O)N(C2CCCCC2)C(=O)N1c1ccccc1S(=O)(=O)Oc1ccccc1`, the TGI with MDA-N, in the assay with T-47D breast and in the assay on MCF7 breast was > 100 µM in each case.

As to `COC(=O)Nc1nc2ccc(C(=O)c3ccc[nH]3)cc2[nH]1`, the TGI in the assay with MDA-N is 0.419 µM; with T-47D breast, > 100 µM; in the assay with MCF7 breast, > 100 µM.

`COc1cc(CCc2cc(NC(=O)c3ccc(N4C[C@@H](C)N[C@@H](C)C4)cc3)n[nH]2)cc(OC)c1`: in the assay with T-47D breast, the GI50 is > 10 µM and 15.3 µM; the TGI was > 10 µM and 31.6 µM. Further, in the assay on MCF7 breast, the GI50 is 3.29 µM and 2.85 µM; the TGI was > 10 µM and 15.8 µM.

Regarding `CCCCCCCCCCCCCCCCCCNC(=O)[C@H]1CSC(c2ccc(OC)c(F)c2)N1` (stereo partly specified), the GI50 with T-47D breast was 2.21 µM; in the assay on MCF7 breast, 0.386 µM. The TGI in the assay with T-47D breast came out at 6.57 µM; in the assay on MCF7 breast, 1.4 µM.

Consider `COc1cc2c(cc1OC)C(=O)C(Br)CC2` (stereo unspecified), for which, in the assay on T-47D breast, the GI50 is 2.25 µM and the TGI worked out at 5.06 µM. Moreover, in the assay with MCF7 breast, the GI50 was 3.13 µM and the TGI is 13.7 µM.

For `O=C(CCCc1c[nH]c2ccccc12)NC1CC(=O)c2c(Br)sc(Br)c21` (stereo unspecified), in the assay on T-47D breast, the GI50 is 26.5 µM and the TGI was > 100 µM. Moreover, in the assay on MCF7 breast, the GI50 was 10.1 µM and the TGI came to 29.5 µM.

As for `O=C(c1cccs1)c1c(C(F)(F)F)n([O-])c2ccc(C(F)(F)F)cc2[n+]1=O`, in the assay on T-47D breast, the GI50 is 0.51 µM and the TGI amounted to 1.43 µM. Further, in the assay with MCF7 breast, the GI50 is 0.294 µM and the TGI worked out at 0.787 µM.

In the case of `COc1cccc(NC(=O)c2sc3nc4c(cc3c2N)CCCC4)c1`, in the assay with T-47D breast, the GI50 is 0.529 µM and the TGI was > 100 µM. For the same compound, in the assay on MCF7 breast, the GI50 was 0.314 µM and the TGI was > 100 µM.

On to `Cc1ccc(-c2c(C#N)c(N)nc(N3CCOCC3)c2C#N)o1`, for which, in the assay on MCF7 breast, the GI50 was 64.9 µM and the TGI was > 100 µM.

Take `COC(=O)c1cnc(=O)n(C2CC(O)C(CO)O2)c1` (stereo unspecified): the GI50 in the assay with T-47D breast and with MCF7 breast was > 100 µM each time. The TGI in the assay on T-47D breast and in the assay with MCF7 breast was > 100 µM each time.

In the case of `O=[N+]([O-])c1ccc(Sc2ncccn2)c([N+](=O)[O-])c1`, in the assay with T-47D breast, the GI50 was 3.01 µM and the TGI amounted to 15 µM. For the same compound, in the assay with MCF7 breast, the GI50 is 3.68 µM and the TGI came to 17.7 µM.

Regarding `Cn1cc(-c2ccc(=O)n(Cc3cccc(-c4ncc(OCCN5CCOCC5)cn4)c3)n2)cn1`, the GI50 in the assay on T-47D breast was 20.9 µM; in the assay with MCF7 breast, 39.5 µM. The results for the TGI in the assay with T-47D breast and in the assay on MCF7 breast were > 81.5 µM and > 100 µM, respectively.

Regarding `CC12OC(C(=O)C13CC3)C1C(=O)c3ccccc3C(=O)C12` (stereo unspecified), in the assay with T-47D breast, the GI50 was 24.4 µM and the TGI is > 100 µM. Moreover, in the assay with MCF7 breast, the GI50 was 21.2 µM and the TGI is 78.6 µM.

Regarding `COc1cc2cc(Oc3ccc(NC(=O)Nc4cccc(C(F)(F)F)c4)cc3)c(C)nc2cc1OCCN1CCCCC1`, in the assay with MCF7 breast, the GI50 was 1.63 µM and the TGI was found to be 3.33 µM.

Regarding `COc1cc[nH]c1/C=C1\C(=O)Nc2ccc(F)c(C#C[C@@H](O)[C@@H](N)[C@@H](C)O)c21`, in the assay on T-47D breast, the GI50 is 0.993 µM and the TGI amounted to 6.07 µM. Moreover, in the assay on MCF7 breast, the GI50 is 0.545 µM and the TGI came out at 4.3 µM.

For `CCCCCCCCCCCCc1ccc(C(=O)/C=C/C(=O)O)cc1`, in the assay with T-47D breast, the GI50 was 1.67 µM and the TGI is 4.11 µM. Further, in the assay with MCF7 breast, the GI50 was 1.62 µM and the TGI amounted to 3.3 µM.

For the compound `COc1ccc(-c2cc(-c3ccc(Nc4nc(Nc5ccc(Cl)cc5)nc(Nc5ccc(Cl)cc5)n4)cc3)nc(N)c2C#N)cc1`, in the assay on T-47D breast, the GI50 is 0.894 µM and the TGI is 5.39 µM. Also, in the assay with MCF7 breast, the GI50 was 2.59 µM and the TGI was > 32.3 µM.
